Data: patent US10201532B2, “Compounds and their use” (ALLECRA THERAPEUTICS GMBH, priority 2010, dated 2019)
Values belong to the compound of their own block, whether it stands above or below them.

How the values were obtained:
[1] = tested on: K. pneumoniae ATCC BAA-1705 (KPC2); experiment: Disk zone of inhibition, antibiotic + Compound-1 on same disk (Methodology 2); format: cell-based, Klebsiella pneumoniae; conditions: CAZ 30 μg or IPM 10 μg disk alone
Text: (§1) In this experiment, Compound-1 is used as a diagnostic reagent for the detection of β-lactamases belonging to the families KPC & ESBL (e.g., SHV18) producing Enterobacteriaceae. A simple set of absorbent paper disks impregnated with antibiotic on agar medium is used for the detection.
(§2) • 0.5 McFarland of the test organism was inoculated at 1:10 dilution on Muller • Hinton Agar plates • Test organisms: Klebsiella pneumoniae (K.p) ATCC BAA-1705, Klebsiella pneumoniae ATCC 700603, Escherichia coli (E.c) Ecoli233 • Carbapenem (e.g., Imipenem [IPM] 10 μg) and cephalosporin (e.g., Ceftazidime [CAZ] 30 μg) paper disks (7 mm) were placed on the inoculated agar plates • Compound-1 (60 μg) disk was placed at a distance of 7 & 10 mm from the carbapenem and cephalosporin disks. • The presence of expressed carbapenemases or ESBLs was measured as the expansion of Imipenem or Ceftazidime's inhibition zones due to synergy in the presence of Compound-1.
(§3) The methodology remains the same as Methodology 1 except the following change • Compound-1 (60 μg) was added on the same disk in combination with a carbapenem (e.g., Imipenem 10 μg) or cephalosporin (e.g., Ceftazidime 30 μg) and placed on the inoculated agar plate. • The presence of the expressed carbapenemases or ESBLs was measured as an increase in Imipenem or Ceftazidime's zone diameter in combination with Compound-1 compared to antibiotic alone. Results

[2] = tested on: E. coli Ecoli233 (KPC3); experiment: as above; format: cell-based, Escherichia coli; conditions: CAZ 30 μg or IPM 10 μg disk alone
Text: as §1, §2, §3

[3] = tested on: K. pneumoniae ATCC 700603 (SHV18); experiment: as above; format: cell-based, Klebsiella pneumoniae; conditions: CAZ 30 μg or IPM 10 μg disk alone
Text: as §1
as §2, with “Compound-1. Results:” for “Compound-1.”
as §3

[4] = tested on: E. coli ATCC 25922 (β-lac-ve); experiment: as above; format: cell-based, Escherichia coli; conditions: CAZ 30 μg or IPM 10 μg disk alone; ATCC 25922
[5] = tested on: KPC-2 producing K. pneumoniae (ATCC BAA-1705); experiment: Synergistic broth micro-dilution MIC (checkerboard); format: cell-based, Klebsiella pneumoniae
[6] = tested on: K. pneumoniae UMM3 (KPC2); experiment: Synergistic broth micro-dilution MIC; format: cell-based, Klebsiella pneumoniae
[7] = tested on: E. cloacae 01 MGH 049 (KPC2, AmpC); experiment: Synergistic broth micro-dilution MIC; format: cell-based
[8] = tested on: E. coli Ecoli233 (KPC3); experiment: Synergistic broth micro-dilution MIC; format: cell-based, Escherichia coli
[9] = tested on: K. pneumoniae NCTC 13438 (KPC3); experiment: Synergistic broth micro-dilution MIC; format: cell-based, Klebsiella pneumoniae
[10] = tested on: KPC-3 expressing E. coli (J53 R6206); experiment: Synergistic broth micro-dilution MIC (checkerboard); format: cell-based, Escherichia coli; conditions: no BLI
[11] = tested on: KPC2 K. pneumoniae ATCC BAA 1705; experiment: Mice systemic infection model; format: in vivo; conditions: Klebsiella pneumoniae, BAA1705; mice, sub-cutaneous; with cilastatin; read-out: ED50 of Imipenem alone
Method: Female Swiss Albino mice, weighing 18-22 g were used for all studies. For each dose group, 5 or 6 mice were included. Study protocols were reviewed and approved by Institutional Animal Ethical Committee, Orchid Research Laboratories Limited. Mice were housed in individually ventilated cages provided with food and water ad libitum, throughout the study period. From overnight culture in Brain-Heart Infusion agar medium, challenge inoculum with required bacterial density was prepared in normal saline containing Hog gastric mucin. In studies involved with doripenem, washed bacterial cells was used. Each mouse was infected […] inoculum by intra-peritoneal injection.
Infected mice were dosed sub-cutaneously, with drug preparations at three different time points post-infection.
Imipenem with BLI combinations: Increasing concentrations of Imipenem as single agent or in combination with fixed concentration of BLIs were used to dose infected mice, sub-cutaneously. In this experiment Imipenem was always administered along with cilastatin. Doripenem with BLI combinations: Increasing concentrations of doripenem as single agent or in combination with fixed concentration of BLIs were used to dose infected mice, sub-cutaneously.
Survival of the treated mice were monitored twice a day, up to 7 days post-infection. Efficacy dose 50 (ED50) was calculated by Reed and Muench method (Reed, L. J.; Muench, H. “A simple method of estimating fifty percent endpoints”. The American Journal of Hygiene, 1938, 27: 493-497.).

[12] = tested on: KPC2 K. pneumoniae ATCC BAA 1705; experiment: Neutropenic mice thigh infection model (human adapted model); format: in vivo; conditions: Imipenem 140 mg/kg fractionated over 5.5 h; end point 6 h
Method: Female Swiss Albino mice weighing 24-30 g were used for all studies. Study protocols were reviewed and approved by Institutional Animal Ethical Committee, Orchid Research Laboratories Limited. Mice were rendered neutropenic by intra-peritoneal cyclophosphamide injections. Log phase culture in brain heart infusion broth was injected in to mice thighs. Imipenem or Doripenen alone or in combination were administered sub-cutaneously in decreasing fractionated doses every 15 minutes over the period of 5.5 h (Flückiger, U. et al. “Integration of pharmacokinetics and pharmacodynamics of Imipenem in a human-adapted mouse model’. Antimicrobial Agents and Chemother, 1991, 35(9): 1905-1910). The Compound-1 or tazobactam was administered sub-cutaneously as bolus dose at the start of dosing. Efficacy end point was 6 h in Imipenem studies and 8 h in Doripenen studies.
Three experiments were carried out where Doripenen alone or in combination with compound-1 or tazobactam (two experiments) were evaluated. Doripenem 70 mg/kg was administered in fractionated doses over the period of 5.5 h (Fluckiger, U. et al. “Integration of pharmacokinetics and pharmacodynamics of Imipenem in a human-adapted mouse model’. Antimicrobial Agents and Chemother., 1991, 35(9): 1905-1910). Compound-1 or tazobactam was administered as bolus dose at initiation of therapy. Efficacy end point was 8 h after initiation of therapy.

[13] = tested on: E. coli BAA-201 (TEM-3); experiment: MIC of Piperacillin with inhibitor, ESBL isolates; format: cell-based
[14] = tested on: E. coli BAA-197 (TEM-12); experiment: MIC of Piperacillin with inhibitor, ESBL isolates; format: cell-based, Escherichia coli
[15] = tested on: E. coli BAA-198 (TEM-26); experiment: MIC of Piperacillin with inhibitor, ESBL isolates; format: cell-based, Escherichia coli
[16] = tested on: P. mirabilis BAA-663 (TEM-89); experiment: MIC of Piperacillin with inhibitor, ESBL isolates; format: cell-based
[17] = tested on: E. coli BAA-199 (SHV-3); experiment: MIC of Piperacillin with inhibitor, ESBL isolates; format: cell-based, Escherichia coli
[18] = tested on: E. coli BAA-200 (SHV-4); experiment: MIC of Piperacillin with inhibitor, ESBL isolates; format: cell-based, Escherichia coli
[19] = tested on: K. pneumoniae 700603 (SHV-18); experiment: MIC of Piperacillin with inhibitor, ESBL isolates; format: cell-based, Klebsiella pneumoniae

SMILES: C[C@@H](O)[C@H]1C(=O)N2C(C(=O)O)=C(SCCN=CN)C[C@H]12 [Imipenem]
- Zone of inhibition (ZOI), antibiotic alone [1]: 14.5 mm
- Zone of inhibition (ZOI), antibiotic alone [2]: 14 mm
- Zone of inhibition (ZOI), antibiotic alone [3]: 25 mm
- Zone of inhibition (ZOI), antibiotic alone [4]: 26.5 mm
- MIC ([5]; Klebsiella pneumoniae, ATCCBAA1705, no BLI, ATCC BAA-1705, read-out: MIC of antibiotic alone (no BLI)): 32 to 64 µg/mL
- MIC ([6]; Klebsiella pneumoniae, no BLI, read-out: MIC of imipenem, No BLI): 8 µg/mL
- MIC ([7]; Enterobacter cloacae, no BLI, read-out: MIC of imipenem, No BLI): 8 µg/mL
- MIC ([8]; Escherichia coli, no BLI, read-out: MIC of imipenem, No BLI): 16 µg/mL
- MIC ([9]; Klebsiella pneumoniae, NCTC13438, no BLI, read-out: MIC of imipenem, No BLI): 128 µg/mL
- MIC of antibiotic alone (no BLI) [10]: 2 to 4 µg/mL
- ED50 [11]: 8.9 mg/kg
- Bacterial load, Imipenem alone [12]: 6.8E+06 CFU/thigh

- MIC of Imipenem in combination with BLI ([5]; BLI at 4 μg/mL, ATCC BAA-1705): 8 µg/mL
- MIC of Imipenem in combination with BLI ([5]; BLI at 16 μg/mL, ATCC BAA-1705): 8 µg/mL
- MIC of Imipenem in combination with BLI ([6]; BLI at 4 μg/mL): 8 µg/mL
- MIC of Imipenem in combination with BLI ([7]; BLI at 4 μg/mL): 8 µg/mL
- MIC of Imipenem in combination with BLI ([8]; BLI at 4 μg/mL): 16 µg/mL
- MIC of Imipenem in combination with BLI ([8]; BLI at 16 μg/mL): 16 µg/mL
- MIC of Imipenem in combination with BLI ([9]; BLI at 4 μg/mL): 64 µg/mL
- MIC of Piperacillin with inhibitor ([13]; inhibitor at 1 μg/mL): 4 µg/mL
- MIC of Piperacillin with inhibitor ([13]; inhibitor at 2 μg/mL): 4 µg/mL
- MIC of Piperacillin with inhibitor ([13]; inhibitor at 4 μg/mL): 4 µg/mL
- MIC of Piperacillin with inhibitor ([14]; inhibitor at 1 μg/mL): 4 µg/mL
- MIC of Piperacillin with inhibitor ([14]; inhibitor at 2 μg/mL): 8 µg/mL
- MIC of Piperacillin with inhibitor ([14]; inhibitor at 4 μg/mL): 4 µg/mL
- MIC of Piperacillin with inhibitor ([15]; inhibitor at 1 μg/mL): 4 µg/mL
- MIC of Piperacillin with inhibitor ([15]; inhibitor at 2 μg/mL): 4 µg/mL
- MIC of Piperacillin with inhibitor ([15]; inhibitor at 4 μg/mL): 4 µg/mL
- MIC of Piperacillin with inhibitor ([16]; inhibitor at 1 μg/mL): 64 µg/mL
- MIC of Piperacillin with inhibitor ([16]; inhibitor at 2 μg/mL): >128 µg/mL
- MIC of Piperacillin with inhibitor ([16]; inhibitor at 4 μg/mL): >128 µg/mL
- MIC of Piperacillin with inhibitor ([17]; inhibitor at 1 μg/mL): >128 µg/mL
- MIC of Piperacillin with inhibitor ([17]; inhibitor at 2 μg/mL): >128 µg/mL
- MIC of Piperacillin with inhibitor ([17]; inhibitor at 4 μg/mL): >128 µg/mL
- MIC of Piperacillin with inhibitor ([18]; inhibitor at 1 μg/mL): >128 µg/mL
- MIC of Piperacillin with inhibitor ([18]; inhibitor at 2 μg/mL): >128 µg/mL
- MIC of Piperacillin with inhibitor ([18]; inhibitor at 4 μg/mL): >128 µg/mL
- MIC of Piperacillin with inhibitor ([19]; inhibitor at 1 μg/mL): 16 µg/mL
- MIC of Piperacillin with inhibitor ([19]; inhibitor at 2 μg/mL): 32 µg/mL
- MIC of Piperacillin with inhibitor ([19]; inhibitor at 4 μg/mL): 16 µg/mL
SMILES: C[C@]1(Cn2ccnc2)[C@H](C(=O)O)N2C(=O)C[C@H]2S1(=O)=O [Compound-M, (2S,3S,5R)-3-(imidazol-1-ylmethyl)-3-methyl-4,4,7-trioxo-4-thia-1-aza-bicyclo[3.2.0]heptane-2-carboxylic acid]
- Activity with imipenem against the KPC (2 & 3) producing strains, in words ([5]; summary of Table 2, all five strains): only moderately active
